Patent US20150094217A1, “TEST FOR DIAGNOSING RESISTANCE TO AZACITIDINE” (UNIVERSITÉ NICE SOPHIA ANTIPOLIS, priority 2012, published 2015)

Experiments:
[1] = Overall survival (Kaplan-Meier) of MDS or AML patients treated with AZA, cohort 1; assay type: in vivo, human
Text: The comparison of the overall survival with transplantation according to Kaplan-Meier was examined for patients with MDS or AML treated with AZA, as well as the percentage of cells expressing BCL2L10 in their bone marrow.
An overall survival of 3 months was estimated at 95% for the sub-groups weakly expressing BCL2L10 compared with 51% for the sub-groups strongly expressing BCL2L10. For all of the patients in the sub-group strongly expressing BCL2L10, the disease progressed.

[2] = system: SKM1-S cells; assay: Cell metabolism by XTT test after azacitidine stimulation; assay type: cell-based; details: 1 μM azacitidine, 24 h
Procedure: The SKM1-S and SKM1-R cells are transfected with an interfering RNA:Luc siRNA, BCL2L10 siRNA or Bcl-2 siRNA. After 72 h of transfection, the cells are stimulated with 1 μM of azacitidine.
In FIG. 7, the cell metabolism is measured 24 hours after stimulation by means of the XTT test ([…]). The results shown correspond to the average standard error of the mean (±SEM) of three independent experiments performed four times.
To determine whether the overexpression of BCL2L10 is a cause rather than a consequence of azacitidine resistance, the SKM1-S and SKM1-R cells were transfected with a control siRNA or with siRNA directed against one or the other of the BCL2L10 or Bcl-2 proteins, then treated for 24 h with or without azacitidine, before determining cell viability and apoptosis. […] In addition, apoptosis was the main mechanism by which the extinction of the expression of the BCL2L10 gene enabled azacitidine sensitization by increasing the quantity of active caspase-3.

SMILES: Nc1ncn([C@@H]2O[C@H](CO)[C@@H](O)[C@H]2O)c(=O)n1 [Azacitidine]
- overall survival of 3 months ([1]; sub-groups strongly expressing BCL2L10, cohort 1): 51%
- overall survival of 3 months ([1]; sub-groups weakly expressing BCL2L10, cohort 1): 95%
- cell metabolism [2]: loss in cell metabolism
